Usually IC50 stands for the concentration at which inhibition is half-maximal. What is called IC20 is the concentration at which the effect reaches the 20% level.

Consider ten compounds from patent US12187712B2, “Cardiac sarcomere inhibitors” (Cytokinetics, Inc., priority 2018, dated 2025).

Experiment [1] concerns the target T1, bovine cardiac myofibrils (Bos taurus, UniProt Q9BE39).
T1 construct: full-length cardiac myosin in the context of the native sarcomere, skinned myofibril assays were performed; from tissue; host or cells: bovine cardiac left ventricular tissue, detergent-skinned (Triton X-100) myofibrils
The experiment in a line: Skinned myofibril ATPase assay (PK/LDH-coupled), CDMF75. Format: biochemical. The settings on record: inhibition of steady-state ATPase activity of bovine cardiac myofibrils at 75% Ca2+ activation (pCa75). How it is done:
To evaluate the effect of compounds on the ATPase activity of full-length cardiac myosin in the context of the native sarcomere, skinned myofibril assays were performed. Bovine cardiac myofibrils were obtained by homogenizing bovine cardiac left ventricular tissue in the presence of a detergent such as triton X-100. Such treatment removes membranes and a majority of the soluble cytoplasmic proteins but leaves intact the cardiac sarcomeric acto-myosin apparatus. Myofibril preparations retain the ability to hydrolyze ATP in an Ca^2+ regulated manner. ATPase activities of such myofibril preparations in the presence and absence of compounds were assayed at Ca^2+ concentrations activating to a defined fraction of the maximal rate (i.e., 25%, 75%). Small molecule agents were assessed for their ability to inhibit the steady-state ATPase activity of bovine cardiac myofibrils using pyruvate kinase and lactate dehydrogenase (PK/LDH)-coupled enzyme system. This assay regenerates myosin-produced ADP into ATP by oxidizing NADH, producing an absorbance change at 340 nm. Prior to testing small molecule agents, the bovine cardiac myofibrils were assessed for their calcium responsiveness and the calcium concentration that achieves either a 50% (pCa50) or 75% (pCa75) activation of the myofibril system was chosen as the final condition for assessing the inhibitory activity of the small molecule agents. All enzymatic activity was measured in a buffered solution containing 12 mM PIPES (piperazine-N,N′-bis(2-ethanesulfonic acid), 2 mM magnesium chloride at pH 6.8 (PM 12 buffer). Final assay conditions were 1 mg/mL of bovine cardiac myofibrils, 4 U/mL pyruvate kinase, 6 U/mL lactate dehydrogenase, 50 μM ATP, 0.1 mg/mL BSA (bovine serum albumin), 10 ppm antifoam, 1 mM DTT, 0.5 mM NADH, 1.5 mM PEP, 0.6 mM EGTA, and an amount of CaCl2 sufficient to achieve either 50% or 75% activation of the myofibril ATPase activity. Results for compounds tested are provided in Table A. Compounds tested were prepared in accordance with the synthetic procedures described herein.

Experiment [2] deals with adult cardiac ventricular rat myocytes. The experiment in a line: Adult ventricular myocyte contractility (fractional shortening). As to conditions: 5 min perfusion, 5 cells tested. Format: cell-based, Sprague-Dawley rats. The procedure:
Adult male Sprague-Dawley rats were anesthetized and the hearts were quickly excised, rinsed and the ascending aorta was cannulated. Continuous retrograde perfusion was initiated on the hearts at a perfusion pressure of 60 cm H2O. Hearts were first perfused with a nominally Ca^2+-free modified Krebs solution of the following composition: 113 mM NaCl, 4.7 mM KCl, 0.6 mM KH2PO4, 0.6 mM Na2HPO4, 1.2 mM MgSO4, 12 mM NaHCO3, 10 mM KHCO3, 30 mM taurine, 5.5 mM glucose and 10 mM Hepes (all Sigma). This medium is not recirculated and is continually aerated with a 95% O2/5% CO2 mixture. After approximately 3 minutes, the heart was perfused with a modified Krebs buffer supplemented with collagenase (Worthington) and 12.5 μM final calcium concentration. The heart was removed from the cannulae after the heart appeared blanched and soft in appearance. The atria and vessels were removed, and the ventricles were gently dissected into smaller pieces with forceps. The tissue was homogenized by repeated pipette trituration, and the collagenase reaction was stopped by 10% bovine calf serum (BCS), sedimentation and resuspension in perfusion buffer containing 5% BCS and 12.5 uM CaCl2. Myocytes were made calcium tolerant by stepwise addition of a CaCl2 solution to a final concentration of 1.2 mM. Cells were then washed and resuspended in Tyrode's buffer (137 mM NaCl, 3.7 mM KCl, 0.5 mM MgCl, 11 mM glucose, 4 mM Hepes, and 1.2 mM CaCl2, pH 7.4). Cells were kept for 60 min at 37° C. prior to initiating experiments and used within 5 hrs of isolation. […] Additionally, only cells whose basal contractility was between 3 and 8% were used in subsequent experiments with compounds.
Aliquots of myocytes in Tyrode's buffer were placed in perfusion chambers (series 20 RC-27NE; Warner Instruments) complete with heating platforms. […] Contractility of the myocytes and contraction and relaxation velocities were then recorded using edge detection.
Five or more individual myocytes were tested per compound from two or more different myocyte preparations. […] These average transients were analyzed using the IonWizard software (IonOptix) to determine changes in diastolic length and fractional shortening. Fractional shortening was calculated as: ((resting length −length at peak contraction) divided by the resting length). The percent change in fractional shortening from baseline was calculated as: ((post-dose fractional shortening/basal fractional shortening)*100). The percent reduction in fractional shortening from baseline was calculated as: (100−percent change in fractional shortening from baseline). Maximum contraction and relaxation velocities (um/sec) was also determined. Results from individual cells were averaged and the SEM was calculated.

In experiment [3] the test system is rat cardiac contractility. In words: Echocardiography assessment of acute pharmacodynamic effect in rat cardiac contractility (continuous IV infusion). Type of experiment: in vivo, Sprague Dawley rats. As to conditions: estimated plasma concentration for 20% relative reduction in cardiac fractional shortening, loading + maintenance IV dose 0.5 + 1.5 mg/kg, isoflurane anesthesia. How it is done:
Echocardiography assessment of acute pharmacodynamic effect in rat cardiac contractility.
Assessment of in vivo cardiac function by echocardiography was performed in male Sprague Dawley rats under isoflurane (1-3%) anesthesia. 2-D M-mode images of the left ventricle were acquired in the parasternal long-axis view before and during administration of compounds by continuous IV infusion. In vivo fractional shortening was determined by M-mode image analysis with the following calculation: ((End diastolic diameter−end systolic diameter)/end diastolic diameter×100). For continuous IV infusion experiments, three pre-dose baseline M-mode images were taken at 1 minute intervals prior to infusion of compound. Compounds were formulated in 50% Propylene Glycol (PG): 16% Cavitron: 10% dimethylacetamide (DMA) and delivered via a jugular vein catheter at the rate of 1 mL/kg/h. An estimated loading and maintenance IV infusion dose was administered to establish a steady state plasma concentration that produced a sustained, 20% relative reduction in cardiac fractional shortening for 60 minutes. During infusion, M-mode images were taken at 5 minute intervals for 60 minutes. Blood samples were taken to determine the plasma concentration of the compounds. Data were reported as an estimated IC20 value, which is the concentration at which fractional shortening is […]. […]

Molecules are shown by their SMILES.

T1 sequence (Q9BE39 whole entry): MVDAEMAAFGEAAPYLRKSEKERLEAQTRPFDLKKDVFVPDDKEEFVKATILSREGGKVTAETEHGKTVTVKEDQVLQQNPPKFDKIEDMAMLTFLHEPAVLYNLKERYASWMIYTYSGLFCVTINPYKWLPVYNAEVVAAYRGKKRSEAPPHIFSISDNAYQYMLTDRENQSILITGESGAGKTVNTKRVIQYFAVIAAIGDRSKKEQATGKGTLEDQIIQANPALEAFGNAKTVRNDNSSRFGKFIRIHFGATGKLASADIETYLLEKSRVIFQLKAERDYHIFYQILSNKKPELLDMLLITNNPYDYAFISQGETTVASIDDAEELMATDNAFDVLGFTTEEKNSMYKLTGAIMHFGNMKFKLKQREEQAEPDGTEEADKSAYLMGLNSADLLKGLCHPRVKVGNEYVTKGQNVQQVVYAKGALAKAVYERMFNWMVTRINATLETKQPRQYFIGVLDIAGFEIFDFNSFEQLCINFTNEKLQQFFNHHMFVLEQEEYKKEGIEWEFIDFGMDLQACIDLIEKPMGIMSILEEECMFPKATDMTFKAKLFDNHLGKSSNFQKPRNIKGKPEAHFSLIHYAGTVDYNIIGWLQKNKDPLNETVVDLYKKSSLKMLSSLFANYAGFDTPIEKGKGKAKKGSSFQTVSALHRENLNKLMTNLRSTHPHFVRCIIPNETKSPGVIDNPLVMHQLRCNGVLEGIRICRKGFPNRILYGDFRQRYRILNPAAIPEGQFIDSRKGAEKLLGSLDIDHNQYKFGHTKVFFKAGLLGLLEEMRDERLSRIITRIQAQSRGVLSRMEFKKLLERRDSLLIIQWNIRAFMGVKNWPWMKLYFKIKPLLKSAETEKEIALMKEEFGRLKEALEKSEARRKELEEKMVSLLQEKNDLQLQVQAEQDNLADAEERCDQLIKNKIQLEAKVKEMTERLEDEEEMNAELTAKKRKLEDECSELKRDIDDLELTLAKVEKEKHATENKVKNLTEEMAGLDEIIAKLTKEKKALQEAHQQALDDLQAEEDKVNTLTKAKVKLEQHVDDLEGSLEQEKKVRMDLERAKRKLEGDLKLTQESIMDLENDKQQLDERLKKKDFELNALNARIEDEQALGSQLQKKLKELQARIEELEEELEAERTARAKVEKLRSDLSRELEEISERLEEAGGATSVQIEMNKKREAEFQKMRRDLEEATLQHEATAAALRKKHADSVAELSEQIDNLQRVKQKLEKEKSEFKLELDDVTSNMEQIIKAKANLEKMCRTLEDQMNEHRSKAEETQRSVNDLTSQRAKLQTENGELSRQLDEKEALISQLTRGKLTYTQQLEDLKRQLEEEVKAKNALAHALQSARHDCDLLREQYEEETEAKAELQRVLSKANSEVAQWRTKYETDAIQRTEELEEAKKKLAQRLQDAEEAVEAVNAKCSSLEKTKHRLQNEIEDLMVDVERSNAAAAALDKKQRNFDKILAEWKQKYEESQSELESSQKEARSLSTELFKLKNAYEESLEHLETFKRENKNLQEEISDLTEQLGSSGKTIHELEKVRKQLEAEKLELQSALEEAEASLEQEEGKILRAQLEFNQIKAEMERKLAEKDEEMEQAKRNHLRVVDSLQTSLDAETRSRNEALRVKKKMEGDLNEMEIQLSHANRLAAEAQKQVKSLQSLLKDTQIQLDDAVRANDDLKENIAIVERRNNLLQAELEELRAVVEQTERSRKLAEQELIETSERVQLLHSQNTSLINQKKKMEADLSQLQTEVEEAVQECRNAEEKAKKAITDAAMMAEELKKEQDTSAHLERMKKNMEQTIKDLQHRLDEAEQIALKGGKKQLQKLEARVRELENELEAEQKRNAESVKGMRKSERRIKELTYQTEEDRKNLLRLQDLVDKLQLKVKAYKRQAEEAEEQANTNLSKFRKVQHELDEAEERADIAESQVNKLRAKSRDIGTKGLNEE
T1 sequence (P85100 whole entry partner): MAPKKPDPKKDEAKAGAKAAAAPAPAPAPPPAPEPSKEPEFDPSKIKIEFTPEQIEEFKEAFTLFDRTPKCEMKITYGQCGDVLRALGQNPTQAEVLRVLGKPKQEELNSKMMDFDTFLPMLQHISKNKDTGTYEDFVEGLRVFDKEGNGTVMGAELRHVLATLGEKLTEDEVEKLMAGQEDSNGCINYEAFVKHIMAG
T1 sequence (Q3SZE5 whole entry partner): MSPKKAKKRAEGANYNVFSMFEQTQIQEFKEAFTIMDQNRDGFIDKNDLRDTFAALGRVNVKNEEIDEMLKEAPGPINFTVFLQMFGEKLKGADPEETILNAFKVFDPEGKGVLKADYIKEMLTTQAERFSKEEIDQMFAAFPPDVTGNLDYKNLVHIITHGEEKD

Regarding `Cc1nc(-c2ccc(CNc3cc(C(N)=O)ccn3)cc2)no1` [Compound 19, 2-((4-(5-methyl-1,2,4-oxadiazol-3-yl)benzyl)amino) isonicotinamide], in experiment [1], the “CDMF75 IC15” value is 1200 nM and the IC50 amounted to 4300 nM. In addition, the “% FS (% reduction from baseline) ± SEM” value in experiment [2] (concentration 10 μM) is given as 14.4 ± 3.4%.

As for `Cc1nc(-c2ccc([C@@H](C)Nc3cnccn3)cc2)no1` [Compound 28, (R)-N-(1-(4-(5-methyl-1,2,4-oxadiazol-3-yl)phenyl)ethyl)pyrazin-2-amine], in experiment [1], the “CDMF75 IC15” value worked out at 600 nM and the IC50 was determined as 2600 nM. Besides, the “% FS (% reduction from baseline) ± SEM” value in experiment [2] (concentration 5 μM) is reported as 43.6 ± 9.3%. In experiment [3], the IC20 at 1.5 mg/kg was 800 nM.

With `C[C@@H](Nc1cnccn1)c1ccc(-c2noc(C(F)(F)F)n2)cc1` [Compound 34, (R)-N-(1-(4-(5-(trifluoromethyl)-1,2,4-oxadiazol-3-yl)phenyl)ethyl)pyrazin-2-amine], in experiment [1], the “CDMF75 IC15” value amounted to 500 nM and the IC50 worked out at 2300 nM. Also, in experiment [2] (concentration 5 μM), the “% FS (% reduction from baseline) ± SEM” value turned out to be 30.7 ± 5.0%.

On to `Cc1cc(-c2ccc(CNc3cnccn3)cc2)no1` [Compound 52, N-(4-(5-methylisoxazol-3-yl)benzyl)pyrazin-2-amine], for which, in experiment [1], the “CDMF75 IC15” value worked out at 200 nM and it took 1000 nM to reach half-maximal inhibition (IC50). In addition, the “% FS (% reduction from baseline) ± SEM” value in experiment [2] (concentration 1 μM) is given as 17.4 ± 6.8%.

With `COc1cc(NCc2ccc(-c3cc(C)on3)cc2)ncn1` [Compound 66, 6-methoxy-N-(4-(5-methylisoxazol-3-yl)benzyl)pyrimidin-4-amine], in experiment [1], the “CDMF75 IC15” value came out at 300 nM and it took 1700 nM to reach half-maximal inhibition (IC50).

In the case of `COc1cnc(NCc2ccc(-c3cc(C)on3)cc2)cn1` [Compound 67, 5-methoxy-N-(4-(5-methylisoxazol-3-yl)benzyl)pyrazin-2-amine], in experiment [1], the “CDMF75 IC15” value is 400 nM and the midpoint of inhibition, the IC50, lay at 2200 nM.

`Cc1cc(-c2ccc(CNc3cc(=O)cc[nH]3)cc2)no1` [Compound 68, 2-([[4-(5-methyl-1,2-oxazol-3-yl)phenyl]methyl]amino)-1,4-dihydropyridin-4-one]: in experiment [1], the “CDMF75 IC15” value is over 39200 nM and the IC50 is over 39200 nM.

As to `Cc1coc(-c2ccc(CNc3cnccn3)cc2)n1` [Compound 69, N-[[4-(4-methyl-1,3-oxazol-2-yl)phenyl]methyl]pyrazin-2-amine], in experiment [1], the “CDMF75 IC15” value turned out to be 18400 nM and the IC50 is over 39200 nM.

On to `FC(F)(F)c1nc(-c2ccc(CNc3cnccn3)cc2)no1` [Compound 70, N-(4-(5-(trifluoromethyl)-1,2,4-oxadiazol-3-yl)benzyl)pyrazin-2-amine], for which, in experiment [1], the “CDMF75 IC15” value came out at 800 nM and the IC50 stood at 4100 nM.

Take `COc1cccc(NCc2ccc(-c3cc(C)on3)cc2)n1` [Compound 71, 6-methoxy-N-[[4-(5-methyl-1,2-oxazol-3-yl)phenyl]methyl]pyridin-2-amine]: in experiment [1], the “CDMF75 IC15” value was over 39200 nM and the IC50 is over 39200 nM.
